From publication PMC10470519, “CryoEM analysis of the essential native UDP-glucose pyrophosphorylase from Aspergillus nidulans reveals key conformations for activity regulation and function” (mBio, 2023) come the findings set out here.

Broadly, the stoichiometry N is a count of units in the complex or per binding partner.

For one test, the target named is T1, AnUGP (Aspergillus nidulans, UniProt C8VK50).
T1 construct: gene ANIA_09148; homooctamer
T1 sequence (C8VK50 1-514): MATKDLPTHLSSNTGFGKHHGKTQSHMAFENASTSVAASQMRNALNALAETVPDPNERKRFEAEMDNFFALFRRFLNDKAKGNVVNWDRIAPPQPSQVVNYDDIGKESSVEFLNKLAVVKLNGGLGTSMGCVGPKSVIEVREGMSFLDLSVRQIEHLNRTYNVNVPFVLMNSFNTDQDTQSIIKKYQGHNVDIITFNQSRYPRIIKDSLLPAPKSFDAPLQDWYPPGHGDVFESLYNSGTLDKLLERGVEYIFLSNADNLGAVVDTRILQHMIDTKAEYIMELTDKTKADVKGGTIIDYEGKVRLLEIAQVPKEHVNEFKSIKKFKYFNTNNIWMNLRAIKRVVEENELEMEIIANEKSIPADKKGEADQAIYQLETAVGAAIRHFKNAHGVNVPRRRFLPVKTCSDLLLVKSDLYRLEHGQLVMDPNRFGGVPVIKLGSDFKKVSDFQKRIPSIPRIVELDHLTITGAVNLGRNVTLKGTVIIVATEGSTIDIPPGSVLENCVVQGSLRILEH
The test is described as follows: malachite green phosphate assay coupled to inorganic pyrophosphatase. The test is classed as biochemical. Conditions: 0.25 mM UTP, 0.25 mM Glc-1-P, 2 mM MgCl2, 100 mM NaCl, 50 mM Tris-HCl pH 7.5, 30 °C.

Test [1] deals with UDP-glucose pyrophosphorylase from Aspergillus nidulans (Aspergillus nidulans). The test is described as follows: cryo-EM structure; native AnUGP in buffer A at 0.18 mg/mL, vitrified on Quantifoil R1.2/1.3 grids; Titan Krios 300 kV; C1, D4 and locally refined maps; 3D variability analysis.
Test [2] has the same target. Briefly: SEC; Superose 6 GL 10/300 in buffer A (50 mM Tris, 200 mM NaCl, 2 mM β-mercaptoethanol, pH 7.8); peak around 14.5 mL. A general note: In gel filtration, larger molecules generally elute earlier.

For `O=P(O)(O)O[C@H]1O[C@H](CO)[C@@H](O)[C@H](O)[C@H]1O` [Glc-1-P], the “malachite green phosphate assay coupled to inorganic pyrophosphatase” value at AnUGP is “AnUGP catalyzes the condensation reaction between UTP and Glc-1-P to produce UDP-Glc and PPi”.
Consider `O=c1ccn([C@@H]2O[C@H](COP(=O)(O)OP(=O)(O)OP(=O)(O)O)[C@@H](O)[C@H]2O)c(=O)[nH]1` [UTP], for which, at AnUGP, the “malachite green phosphate assay coupled to inorganic pyrophosphatase” value is “the enzyme was specific for UTP and unable to use ATP or GTP”.
Turning to “UDP-glucose pyrophosphorylase from Aspergillus nidulans (enzyme)”, the stoichiometry N in test [1] and in test [2] was 8 each time.
